The values that follow come from paper PMC10059066, “Probing Serum Albumins and Cyclodextrins as Binders of the Mycotoxin Metabolites Alternariol-3-Glucoside, Alternariol-9-Monomethylether-3-Glucoside, and Zearalenone-14-Glucuronide” (Metabolites, 2023).

Test [1] has as its system serum albumins (HSA, BSA, PSA, RSA). The test can be described thus: Fluorescence quenching, summary over the tested albumins. It counts as binding, human, bovine, porcine, rat. The note with it: PBS pH 7.4, approximate over the albumins tested. The procedure:
(§1) Fluorescence emission spectra were collected at 25 °C using a Hitachi F-4500 fluorescence spectrophotometer (Tokyo, Japan). The quenching effects of AG, AMG, and Z14Glr (each 0–5 μM) on the emission signals of albumins (2 μM each) were examined at 340 nm in phosphate-buffered saline (PBS, pH 7.4). UV–vis measurements were performed at 25 °C in PBS, employing a Jasco V730 UV–vis spectrophotometer (Tokyo, Japan). Thereafter, we corrected the inner-filter effects of the mycotoxins, as previously reported. Stern–Volmer quenching constants (KSV; L/mol) were calculated with the graphical application of the Stern–Volmer equation [11, 29]:(1) I0/I=1+KSV×Q where I0 and I are the emission intensities of the protein without and with the quencher, respectively, while [Q] is the concentration (mol/L) of the quencher (mycotoxin). The binding constants (K; L/mol) of mycotoxin–albumin complexes were determined with nonlinear fitting, using the HyperQuad2006 software (version 3.1; Protonic Software GmbH, Hanau, Germany), as described previously.
(§2) The KSV and K values of mycotoxin–albumin complexes were determined using the Stern–Volmer equation (Equation (1)) and the HyperQuad2006 software (see data in Table 1 and Table 2, respectively). […] The logKSV and logK values of the mycotoxin–albumin complexes were in good agreement (Table 1 and Table 2).

Test [2] addresses T1, bovine serum albumin (BSA) (Bos taurus, UniProt P02769).
T1 construct: purchased Merck (Darmstadt, Germany)
Put plainly: Fluorescence quenching of bovine serum albumin by mycotoxins. It counts as binding. The following applies: for BSA logKSV ± SEM (Stern–Volmer quenching constant): PBS pH 7.4, 25 °C, n = 3; for Kd: fluorescence quenching, HyperQuad fitting, PBS pH 7.4, n = 3, read-out: BSA logK ± SEM (binding constant) (converted). How it is done:
as §1
(§3) The interaction of a ligand molecule with albumin usually induces a decrease in the emission signal of the protein [33]; therefore, fluorescence quenching studies were performed. In PBS (pH 7.4), increasing amounts of AG, AMG, and Z14Glr were added to standard concentrations of human (HSA), bovine (BSA), porcine (PSA), or rat (RSA) serum albumins, after which the emission spectra were recorded.
as §2

Test [3] addresses T2, rat serum albumin (RSA) (Rattus norvegicus, UniProt P02770).
T2 construct: purchased Merck (Darmstadt, Germany)
The test can be described thus: Fluorescence quenching of rat serum albumin by mycotoxins. The note with it: for RSA logKSV ± SEM (Stern–Volmer quenching constant): PBS pH 7.4, 25 °C, n = 3; for Kd: HyperQuad fitting, PBS pH 7.4, n = 3, read-out: RSA logK ± SEM (binding constant) (converted). It counts as binding. How it is done:
as §1, §3, §2

A short description of test [4]: Extraction of mycotoxins from aqueous solutions with β-cyclodextrin bead polymer. The following applies: for decrease in mycotoxin concentration (extraction) by BBP: BBP 10 mg/mL, mycotoxin 5 μM, sodium acetate buffer pH 5.0, 40 min, 25 °C; for removal of mycotoxin by BBP at pH 10.0 compared with pH 5.0: sodium borate pH 10.0 vs sodium acetate pH 5.0, mycotoxin 5 μM. How it is done: The extraction of mycotoxins by insoluble (but water-swellable) CD bead polymers was tested in 0.05 M sodium acetate (pH 5.0) and 0.05 M sodium borate (pH 10.0) buffers. AG, AMG, alternariol, Z14Glr, and zearalenone solutions (5 μM each) were incubated with increasing amounts (0–10 mg/mL) of BBP or GBP in a thermomixer for 40 min at 1000 rpm and 25 °C. After pulse centrifugation (5000× g, 3 s), the mycotoxin contents of the supernatants were analyzed by HPLC-FLD (see Section 2.5).
The quantitative analyses of the examined mycotoxins were performed with a Jasco HPLC system (Tokyo, Japan) equipped with a binary pump (PU-4180), an autosampler (AS 4050), and a fluorescence detector (FP-920). Chromatograms were evaluated using the ChromNAV2 software (Jasco). Alternariol and zearalenone were analyzed as described previously. During the validation of our new HPLC-FLD methods, the linearity (LIN), limit of detection (LOD), limit of quantification (LOQ), and intraday repeatability (IDR) were determined as described previously.
AG and AMG were quantified using the following method: Isocratic elution of the samples (20 μL) was performed at room temperature with a 1 mL/min flow rate, employing phosphoric acid (1 mM) and acetonitrile (65:35 v/v%) as the mobile phase, where a Security Guard (C18, 4.0 × 3.0 mm; Phenomenex, Torrance, CA, US) precolumn was linked to a Kinetex EVO C18 (250 × 4.6 mm, 5 μm; Phenomenex) analytical column. Chromatograms were recorded, applying 335 nm and 455 nm excitation and emission wavelengths, respectively. The method validation parameters were as follows: AG (LIN: 0.2–5.0 μM, R^2 = 0.999; LOD = 0.05 μM; LOQ = 0.18 μM; IDR = 1.3%, n = 7); AMG (LIN: 0.2–5.0 μM, R^2 = 0.997; LOD = 0.15 μM; LOQ = 0.50 μM; IDR = 2.3%, n = 7).
Z14Glr was quantified using the following method: Isocratic elution of the samples (20 μL) was performed at room temperature with a 1 mL/min flow rate, employing 1% acetic acid solution and acetonitrile (65:35 v/v%) as the mobile phase, where a Security Guard (C8, 4.0 × 3.0 mm; Phenomenex) precolumn was linked to a Mediterranea See8 (C8, 150 × 4.6 mm, 5 μm; Teknokroma, Barcelona, Spain) analytical column. Chromatograms were recorded, applying 315 nm and 465 nm excitation and emission wavelengths, respectively. The method validation parameters for the HPLC analysis of Z14Glr were also determined (LIN: 0.2–5.0 μM, R^2 = 0.999; LOD = 0.15 μM; LOQ = 0.50 μM; IDR = 2.0%, n = 7).

In test [5] the target is T3, human serum albumin (HSA) (Homo sapiens, UniProt P02768).
T3 construct: purchased Merck (Darmstadt, Germany)
T3 sequence (P02768 25-609): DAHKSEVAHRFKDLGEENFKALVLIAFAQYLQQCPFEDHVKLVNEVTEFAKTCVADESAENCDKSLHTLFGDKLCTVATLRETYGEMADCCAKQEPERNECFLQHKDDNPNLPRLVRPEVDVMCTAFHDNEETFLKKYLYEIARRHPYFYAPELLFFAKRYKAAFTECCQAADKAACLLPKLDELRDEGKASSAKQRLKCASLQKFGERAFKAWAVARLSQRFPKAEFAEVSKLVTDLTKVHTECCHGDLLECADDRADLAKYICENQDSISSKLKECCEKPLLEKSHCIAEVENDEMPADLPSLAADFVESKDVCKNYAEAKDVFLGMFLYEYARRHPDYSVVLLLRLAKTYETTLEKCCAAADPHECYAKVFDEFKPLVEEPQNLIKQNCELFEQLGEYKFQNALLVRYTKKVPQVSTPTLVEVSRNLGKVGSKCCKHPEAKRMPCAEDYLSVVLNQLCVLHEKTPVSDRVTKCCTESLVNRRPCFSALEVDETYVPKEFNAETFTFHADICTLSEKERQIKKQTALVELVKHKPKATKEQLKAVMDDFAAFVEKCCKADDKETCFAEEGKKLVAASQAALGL
The test can be described thus: Fluorescence quenching of human serum albumin by mycotoxins. The format is binding. The note with it: for HSA logKSV ± SEM (Stern–Volmer quenching constant): PBS pH 7.4, 25 °C, n = 3; for Kd: fluorescence quenching, HyperQuad fitting, PBS pH 7.4, n = 3, read-out: HSA logK ± SEM (binding constant) (converted). How it is done:
as §1, §3, §2

Test [6] is described as follows: Fluorescence spectroscopic study of mycotoxin-SBECD complex formation. The format is binding. The following applies: for SBECD logK ± SEM (binding constant): Benesi–Hildebrand, 0.05 M sodium acetate pH 5.0, mycotoxin 1 μM, n = 3; for SBECD-induced increase in the emission signal of the mycotoxin: SBECD 0–10 mM, mycotoxin 1 μM, sodium acetate pH 5.0. How it is done:
The impacts of SBECD (0–10 mM) and SGD (0–5 mM) on the emission signals of mycotoxins (1 μM each) were tested in sodium acetate buffer (0.05 M, pH 5.0). Mycotoxin–CD interactions were evaluated using the Benesi–Hildebrand equation [11, 31], assuming 1:1 stoichiometry of complex formation:(2) F0/F−F0=1/A+1/A×K×[CD] where K (L/mol) is the binding constant, F0 is the emission signal of the mycotoxin without the host molecules, F is the emission signal of the mycotoxin with CDs, A is a constant, and [CD] is the molar concentration (mol/L) of the host molecules.
Therefore, CD-induced elevation in the fluorescence emission intensities of mycotoxins was examined.
Based on the emission signals at 455 nm, the binding constants of ligand–CD complexes were calculated using the Benesi–Hildebrand equation (Equation (2)). Background corrections were performed in each experiment. […] Glucose and glucuronic acid are bulky, hydrophilic molecules; therefore, it is reasonable to hypothesize that these substituents make the inclusion of AG, AMG, and Z14Glr by the apolar CD cavity difficult.

In test [7] the target is T4, porcine serum albumin (PSA) (Sus scrofa, UniProt P08835).
T4 construct: purchased Merck (Darmstadt, Germany)
T4 sequence (P08835 25-607): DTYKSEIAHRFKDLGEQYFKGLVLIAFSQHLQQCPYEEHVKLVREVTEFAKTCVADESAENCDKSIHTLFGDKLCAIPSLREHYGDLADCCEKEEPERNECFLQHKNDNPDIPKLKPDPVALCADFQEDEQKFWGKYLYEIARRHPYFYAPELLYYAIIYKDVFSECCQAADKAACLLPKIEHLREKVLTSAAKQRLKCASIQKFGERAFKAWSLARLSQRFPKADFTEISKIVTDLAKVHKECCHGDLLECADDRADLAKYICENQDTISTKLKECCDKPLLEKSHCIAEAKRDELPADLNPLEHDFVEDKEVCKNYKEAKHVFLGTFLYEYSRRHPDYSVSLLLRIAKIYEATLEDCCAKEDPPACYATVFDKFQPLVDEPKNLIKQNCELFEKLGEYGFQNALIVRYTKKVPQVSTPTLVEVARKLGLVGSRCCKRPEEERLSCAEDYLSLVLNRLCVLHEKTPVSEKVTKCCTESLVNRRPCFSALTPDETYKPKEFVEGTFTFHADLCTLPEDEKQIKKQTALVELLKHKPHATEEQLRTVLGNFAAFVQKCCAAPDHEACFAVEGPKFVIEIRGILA
Put plainly: Fluorescence quenching of porcine serum albumin by mycotoxins. It counts as binding. The following applies: for PSA logKSV ± SEM (Stern–Volmer quenching constant): PBS pH 7.4, 25 °C, n = 3; for Kd: fluorescence quenching, HyperQuad fitting, PBS pH 7.4, n = 3, read-out: PSA logK ± SEM (binding constant) (converted). How it is done:
as §1, §3, §2

Test [8] addresses T2, rat serum albumin (RSA). The test can be described thus: Ultracentrifugation study of Z14Glr-RSA binding. The note with it: PBS pH 7.4, read-out: logK of the Z14Glr–RSA complex (converted).
[9] abbreviates: mycotoxin 0–5 μM, albumin 2 μM, PBS pH 7.4.

T2 sequence (P02770 25-608): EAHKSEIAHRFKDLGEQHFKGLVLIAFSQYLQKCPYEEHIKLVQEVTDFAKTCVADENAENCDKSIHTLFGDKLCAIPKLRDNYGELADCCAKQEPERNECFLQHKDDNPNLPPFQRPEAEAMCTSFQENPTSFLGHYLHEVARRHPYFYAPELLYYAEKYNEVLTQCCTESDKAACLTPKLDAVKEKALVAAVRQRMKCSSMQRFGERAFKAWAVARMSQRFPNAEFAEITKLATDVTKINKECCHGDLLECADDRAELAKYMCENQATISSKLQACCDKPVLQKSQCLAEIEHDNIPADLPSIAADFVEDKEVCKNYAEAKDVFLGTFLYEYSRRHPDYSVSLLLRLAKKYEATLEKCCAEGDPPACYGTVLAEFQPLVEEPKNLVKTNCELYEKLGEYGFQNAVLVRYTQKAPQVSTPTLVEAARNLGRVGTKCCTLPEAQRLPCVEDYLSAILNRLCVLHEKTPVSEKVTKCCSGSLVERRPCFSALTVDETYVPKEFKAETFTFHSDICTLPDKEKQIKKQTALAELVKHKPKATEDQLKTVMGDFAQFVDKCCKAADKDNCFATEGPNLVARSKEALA
T1 sequence (P02769 25-607): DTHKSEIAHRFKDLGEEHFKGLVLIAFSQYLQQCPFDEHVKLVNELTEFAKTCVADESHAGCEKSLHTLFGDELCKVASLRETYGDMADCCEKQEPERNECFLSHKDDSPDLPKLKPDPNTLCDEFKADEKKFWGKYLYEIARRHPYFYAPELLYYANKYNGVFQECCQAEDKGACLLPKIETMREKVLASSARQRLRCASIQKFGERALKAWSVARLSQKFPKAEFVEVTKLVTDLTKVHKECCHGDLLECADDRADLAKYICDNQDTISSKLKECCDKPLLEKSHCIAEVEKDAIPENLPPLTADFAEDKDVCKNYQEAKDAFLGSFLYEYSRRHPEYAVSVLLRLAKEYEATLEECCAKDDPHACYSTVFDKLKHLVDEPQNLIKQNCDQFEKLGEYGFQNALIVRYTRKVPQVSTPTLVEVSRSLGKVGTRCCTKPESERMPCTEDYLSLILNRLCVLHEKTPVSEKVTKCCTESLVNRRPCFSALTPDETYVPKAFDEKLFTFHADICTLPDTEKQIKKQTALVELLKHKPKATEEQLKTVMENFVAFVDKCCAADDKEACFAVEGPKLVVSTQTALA

As to `Cc1cc(OC2O[C@H](CO)[C@@H](O)[C@H](O)[C@H]2O)cc2oc(=O)c3c(O)cc(O)cc3c12` (some centres unmarked) [AG, alternariol-3-glucoside], the “binding constant K of mycotoxin–albumin complexes” value in test [1] is given as “≈ 3 × 10^4 L/mol”. In test [2] (albumin 2 μM, mycotoxin 0–5 μM), the “BSA logKSV ± SEM (Stern–Volmer quenching constant)” value was 4.44 ± 0.04 L/mol. For the same compound, the Kd in test [2] is 34.7 µM; in test [3] (fluorescence quenching) it was 29.5 µM; in test [5], 30.2 µM; in test [7], 37.2 µM. Besides, the “RSA logKSV ± SEM (Stern–Volmer quenching constant)” value (from here on “RSA logKSV ± SEM”) in test [3] (albumin 2 μM, mycotoxin 0–5 μM) came out at 4.49 ± 0.03 L/mol. For the same compound, the “decrease in mycotoxin concentration (extraction) by BBP” value (“decrease in mycotoxin concentration” for short) in test [4] is reported as “approximately 85%”. The “removal of mycotoxin by BBP at pH 10.0 compared with pH 5.0” value (“removal … compared with pH 5.0” below) in test [4] is on record as “significantly lower than at acidic pH”. Further, the “HSA logKSV ± SEM (Stern–Volmer quenching constant)” value in test [5] (albumin 2 μM, mycotoxin 0–5 μM) is on record as 4.48 ± 0.08 L/mol. For the same compound, the “SBECD logK ± SEM (binding constant)” value in test [6] is given as 2.92 ± 0.05 L/mol. In addition, in test [6], the “SBECD-induced increase in the emission signal of the mycotoxin” value (“SBECD-induced increase” below) was “threefold elevation”. Further, the “PSA logKSV ± SEM (Stern–Volmer quenching constant)” value in test [7] (albumin 2 μM, mycotoxin 0–5 μM) was found to be 4.38 ± 0.03 L/mol.
With `COc1cc(O)c2c(=O)oc3cc(OC4O[C@H](CO)[C@@H](O)[C@H](O)[C@H]4O)cc(C)c3c2c1` (some centres unmarked) [AMG, alternariol-9-monomethylether-3-glucoside], the “binding constant K of mycotoxin–albumin complexes” value in test [1] is recorded as “≈ 3 × 10^4 L/mol”. Further, the “BSA logKSV ± SEM (Stern–Volmer quenching constant)” value in test [2] (albumin 2 μM, mycotoxin 0–5 μM) turned out to be 4.57 ± 0.02 L/mol. The Kd in test [2] is 25.7 µM; in test [3] (fluorescence quenching), 22.4 µM; in test [5], 39.8 µM; in test [7] it was 51.3 µM. Further, in test [3] (albumin 2 μM, mycotoxin 0–5 μM), the “RSA logKSV ± SEM” value came to 4.62 ± 0.02 L/mol. Also, in test [4], the “decrease in mycotoxin concentration” value is approximately 75%. The “removal … compared with pH 5.0” value in test [4] is listed as “did not show relevant pH dependence”. Moreover, the “HSA logKSV ± SEM (Stern–Volmer quenching constant)” value in test [5] (albumin 2 μM, mycotoxin 0–5 μM) came out at 4.38 ± 0.05 L/mol. The “SBECD logK ± SEM (binding constant)” value in test [6] is 2.79 ± 0.08 L/mol. Moreover, the “SBECD-induced increase” value in test [6] is listed as “threefold elevation”. Besides, in test [7] (albumin 2 μM, mycotoxin 0–5 μM), the “PSA logKSV ± SEM (Stern–Volmer quenching constant)” value is 4.27 ± 0.03 L/mol.
On to `C[C@H]1CCCC(=O)CCC/C=C/c2cc(O[C@@H]3OC(C(=O)O)[C@@H](O)C(O)C3O)cc(O)c2C(=O)O1` (stereo partly drawn) [Z14Glr, zearalenone-14-β,D-glucuronide], for which, in test [2] (setting [9]), the “effect on fluorescence emission spectrum of BSA” value is recorded as “barely affected”. Further, the Kd in test [8] is 13.5 µM. For the same compound, in test [3] (albumin 2 μM, mycotoxin 0–5 μM), the “RSA logKSV ± SEM” value was determined as 4.65 ± 0.05 L/mol. Besides, the Kd in test [3] (fluorescence quenching) is 19.5 µM. Also, the “binding constant K of Z14Glr-RSA complex” value in test [3] (fluorescence quenching, PBS pH 7.4) is listed as “≈ 5 × 10^4 L/mol”. Also, the “effect on fluorescence emission intensity of RSA” value in test [3] (setting [9]) is “considerably decreased”. Besides, in test [4], the “decrease in mycotoxin concentration” value stood at 45% and the “removal … compared with pH 5.0” value is “significantly lower than at acidic pH”. Besides, in test [5] (setting [9]), the “effect on fluorescence emission spectrum of HSA” value is reported as “barely affected”. For the same compound, in test [6], the “SBECD logK ± SEM (binding constant)” value is 2.32 ± 0.12 L/mol and the “SBECD-induced increase” value is recorded as “ninefold”. For the same compound, the “effect on fluorescence emission spectrum of PSA” value in test [7] (setting [9]) was “barely affected”.
